Experimental findings from EPA's ToxRefDB 2 are described below.

In data set [1] the test system is rat. To be noted: Prenatal developmental toxicity study, sprague dawley, Oral, Gavage/Intubation, dose end: 15 GD.
The test system of another data set is mouse. The settings on record: Carcinogenicity, cd1, Oral, Feed, dose end: 78 week, group: systemic.
Data set [2] has as its system rat. The settings on record: Combined chronic toxicity/carcinogenicity, sprague dawley, Oral, Feed, dose end: 24 month, group: systemic.
Data set [3] concerns rat. The settings on record: Subchronic oral toxicity in rodents, sprague dawley, Feed, dose end: 13 week, group: systemic.
Where [4] appears, read: group: developmental, developmental / developmental malformation / bone / incomplete ossification + developmental / developmental malformation / bone / split ….
Setting [5] is: group: maternal, systemic / in life observation / body weight / body weight gain + systemic / in life observation / clinical signs / salivation + ….
[6] abbreviates: systemic / in life observation / food consumption / food consumption.
Where [7] appears, read: systemic / in life observation / food consumption / food consumption + systemic / clinical chemistry / cholesterol / cholesterol + systemic….

With `CCSC(C)CC1CC(=O)C(C(CC)=NOC/C=C/Cl)=C(O)C1` (stereo not given) [Clethodim], the LEL in the data set on rat [1] (group: developmental, developmental / developmental malformation / bone / absent + developmental / developmental malformation / mouth / jaw / maxillary …) was 100 mg/kg/day; with rat [1] (group: maternal, systemic / in life observation / body weight / body weight gain + systemic / in life observation / clinical signs / salivation + systemic / …), 350 mg/kg/day; in the data set with mouse (systemic / pathology microscopic / liver / adenoma + systemic / pathology microscopic / lung / adenoma + systemic / hematology / erythrocyte…), 30 mg/kg/day; in the data set with rat [2] (systemic / pathology microscopic / bone marrow / hypocellularity), 0.64 mg/kg/day; in the data set on rat [3] (setting [6]), 25 mg/kg/day. Moreover, the LOAEL stood at 350 mg/kg/day with rat [1] (setting [4]); 350 mg/kg/day in the data set on rat [1] (group: maternal, systemic / in life observation / body weight / body weight gain + systemic / in life observation / clinical signs / salivation); 150 mg/kg/day in the data set with mouse (systemic / pathology microscopic / liver / hypertrophy + systemic / organ weight / liver / relative to body weight + systemic / organ weight…); 100 mg/kg/day in the data set on rat [2] (systemic / in life observation / body weight / body weight gain + systemic / organ weight / liver / relative to body weight + systemic / …); 25 mg/kg/day with rat [3] (setting [6]). Besides, the NEL is 10 mg/kg/day in the data set with rat [1] (setting [4]); 100 mg/kg/day in the data set on rat [1] (setting [5]); 3 mg/kg/day with mouse (systemic / pathology microscopic / liver / adenoma + systemic / pathology microscopic / lung / adenoma + systemic / pathology microscopic / …); 0.18 mg/kg/day with rat [2] (systemic / pathology microscopic / bone marrow / hypocellularity + systemic / in life observation / body weight / body weight + systemic / …); 2.3 mg/kg/day in the data set with rat [3] (setting [7]). The NOAEL with rat [1] (setting [4]) was 100 mg/kg/day; in the data set on rat [1] (setting [5]), 100 mg/kg/day; in the data set with mouse (systemic / pathology microscopic / liver / hypertrophy + systemic / pathology microscopic / liver / adenoma + systemic / hematology / …), 30 mg/kg/day; with rat [2] (systemic / in life observation / body weight / body weight gain + systemic / organ weight / liver / absolute + systemic / pathology …), 19 mg/kg/day; in the data set with rat [3] (setting [7]), 2.3 mg/kg/day.

What is called LOAEL is the lowest dose or exposure tested at which an adverse effect was seen. What is called NOAEL is the highest tested level that showed no adverse finding.
